Target: T1, Aldehyde Oxidase (AO) (Homo sapiens, UniProt Q06278)
T1 construct: tissue Frontage Laboratories (performed the study); host or cells: human liver cytosol (HLC), 2 mg/ml
T1 sequence (Q06278 1-1338): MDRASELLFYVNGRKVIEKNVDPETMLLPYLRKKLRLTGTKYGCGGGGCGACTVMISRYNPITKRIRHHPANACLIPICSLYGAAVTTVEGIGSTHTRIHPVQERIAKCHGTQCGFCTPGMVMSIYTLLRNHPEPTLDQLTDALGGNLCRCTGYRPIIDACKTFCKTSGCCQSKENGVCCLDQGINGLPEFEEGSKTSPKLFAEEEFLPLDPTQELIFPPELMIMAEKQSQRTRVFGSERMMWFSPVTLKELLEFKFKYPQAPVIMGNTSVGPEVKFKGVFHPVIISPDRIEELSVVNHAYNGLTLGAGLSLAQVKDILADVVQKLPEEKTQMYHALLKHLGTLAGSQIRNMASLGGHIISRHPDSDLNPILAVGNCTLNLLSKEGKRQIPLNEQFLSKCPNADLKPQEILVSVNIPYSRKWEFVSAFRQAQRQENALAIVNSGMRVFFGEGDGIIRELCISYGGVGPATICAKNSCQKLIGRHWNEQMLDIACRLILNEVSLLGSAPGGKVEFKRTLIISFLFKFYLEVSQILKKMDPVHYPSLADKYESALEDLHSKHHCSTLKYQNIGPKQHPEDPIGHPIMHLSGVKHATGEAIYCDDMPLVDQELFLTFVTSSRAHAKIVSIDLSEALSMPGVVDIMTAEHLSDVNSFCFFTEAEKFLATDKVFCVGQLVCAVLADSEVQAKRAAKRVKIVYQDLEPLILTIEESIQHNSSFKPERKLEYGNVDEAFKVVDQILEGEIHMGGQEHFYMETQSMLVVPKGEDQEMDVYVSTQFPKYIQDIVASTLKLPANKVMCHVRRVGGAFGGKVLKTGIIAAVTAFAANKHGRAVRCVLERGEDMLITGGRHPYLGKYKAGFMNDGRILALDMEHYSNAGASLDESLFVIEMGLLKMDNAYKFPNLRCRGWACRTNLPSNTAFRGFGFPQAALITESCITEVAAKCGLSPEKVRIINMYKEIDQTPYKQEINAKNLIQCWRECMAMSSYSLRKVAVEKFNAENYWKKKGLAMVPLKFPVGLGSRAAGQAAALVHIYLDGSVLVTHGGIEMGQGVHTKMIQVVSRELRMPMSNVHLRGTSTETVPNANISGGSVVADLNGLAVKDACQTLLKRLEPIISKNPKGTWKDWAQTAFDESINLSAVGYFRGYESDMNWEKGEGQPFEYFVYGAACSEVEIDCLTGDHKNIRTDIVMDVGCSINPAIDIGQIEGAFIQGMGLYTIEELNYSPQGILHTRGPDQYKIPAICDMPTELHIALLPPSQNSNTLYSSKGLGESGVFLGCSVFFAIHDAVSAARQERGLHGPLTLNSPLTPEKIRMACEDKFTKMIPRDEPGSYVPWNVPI
Assay: Aldehyde oxidase (AO) oxidation study, metabolic stability in human liver cytosol
Type: in vitro ADME
Details: human liver cytosol 2 mg/ml, 1 μM substrate, 37° C.
Description: Experimental Procedure for Aldehyde Oxidase (AO) Oxidation Study (Frontage Laboratories (700 Pennsylvania Dr. Exton, Pa. 19341)
Determination of the of metabolic stability in human liver cytosol (HLC) and the identification of corresponding metabolites was done by incubating substrates (1 μM final concentration for metabolic stability or 10 μM final concentration for metabolite ID) with HLC (2 mg/ml, final concentration) in 100 mM potassium phosphate at pH 7.4. The reaction was initiated by adding HLC without preincubation. The mixture was then incubated at 37° C. for 1 h and samples were taken at 0, 30 and 60 min for analysis. The reaction was terminated by adding acetonitrile (ACN) (3×) followed by vortexing for 1 min then centrifuged. For the metabolic stability study, aliquotes of the supernatants were transferred to clean tubes and directly used for LC/MS/MS analysis. For the identification of metabolites, aliquots of supernatants were transferred to clean tubes and dried under a stream of N2. The residue was reconstituted in 30/70 (v/v) acetonitrile/water solution and injected onto LC/UV/MS system.
The instrument and method for the metabolic stability are as following: LC/MS/MS system: Agilent 1100 HPLC interfaced to Sciex API4000 mass spectrometer (ESI); HPLC column: ACE 3 C18-PFP, 50×2.1 mm, 5 μm. […]

Which “30 minutes (%)” value (pH 7.4, sample at 30 min) does the source give for c1ccc2c(-c3cnn4cc(-c5ccc(N6CCNCC6)cc5)cnc34)ccnc2c1 [TRND00262637-13] here?
The value was 0.06%.

What about the “60 minutes (%)” value (pH 7.4, sample at 60 min) of the same molecule?
Its value is 0.02%.
